Assay results as given in ChEMBL document CHEMBL5532658 (Eur J Med Chem, 2024).
Activity calls are given as the source filed them. No cut-off for these calls is given here.

Columns and labels:
[1] = tested on: MDA-MB-453; assay: Downregulation of Rb protein phosphorylation at Ser807 in human MDA-MB-453 cells incubated for 24 hrs by Western blot analysis; assay type: functional, cell-based; settings: dose 37-333 nM
[2] = tested on: MDA-MB-231; assay: Downregulation of Rb protein phosphorylation at Ser807 in human MDA-MB-231 cells incubated for 24 hrs by Western blot analysis; assay type: functional, cell-based; settings: dose 37-333 nM
[3] = Oral bioavailability in CD1 mouse at 10 mg/kg measured upto 24 hrs by LC-MS/MS analysis; assay type: ADME, organism-based; settings: in vivo
[4] = tested on: MDA-MB-453; assay: Downregulation of Rb protein phosphorylation at Ser811 in human MDA-MB-453 cells incubated for 24 hrs by Western blot analysis; assay type: functional, cell-based; settings: dose 37-333 nM
[5] = tested on: MDA-MB-453; assay: Antiproliferative activity against human MDA-MB-453 cells incubated for 120 hrs by CCK-8 assay; assay type: functional, cell-based; settings: MDA-MB-453, 120 h
[6] = biological target: Cyclin-dependent kinase 18 (Homo sapiens) (UniProt Q07002); assay: Inhibition of CDK18 (unknown origin) at 1 uM by discoverX kinomescan assay
[7] = biological target: Cyclin-dependent kinase 13 (Homo sapiens) (UniProt Q14004); assay: Inhibition of CDK13 (unknown origin) at 1 uM by discoverX kinomescan assay
[8] = tested on: MDA-MB-231; assay: Downregulation of Rb protein phosphorylation at Thr821 in human MDA-MB-231 cells incubated for 24 hrs by Western blot analysis; assay type: functional, cell-based; settings: dose 37-333 nM
[9] = Volume of distribution at steady state in CD1 mouse at 1 mg/kg, iv measured upto 24 hrs by LC-MS/MS analysis; assay type: ADME, organism-based; settings: in vivo, read-out: Vdss
[10] = Toxicity in Balb/c mouse xenografted with human MDA-MB-231 cells assessed as change in body weight at 5 to 10 mg/kg po administered once daily for 21 days and measured every three days; assay type: organism-based; settings: in vivo, 504 h, dose 5-10 mg/kg, time 21 day
[11] = Metabolic stability in mouse liver microsomes assessed as half-life; assay type: ADME, Microsome
[12] = AUC(0 to t) in CD1 mouse at 1 mg/kg, iv measured upto 24 hrs by LC-MS/MS analysis; assay type: ADME, organism-based; settings: in vivo
[13] = tested on: MDA-MB-453; assay: Downregulation of Rb protein phosphorylation at Ser795 in human MDA-MB-453 cells incubated for 24 hrs by Western blot analysis; assay type: functional, cell-based; settings: dose 37-333 nM
[14] = biological target: T1, Mitogen-activated protein kinase 15 (Homo sapiens) (UniProt Q8TD08); assay: Inhibition of ERK7 (unknown origin) at 1 uM by discoverX kinomescan assay
T1 sequence (whole entry): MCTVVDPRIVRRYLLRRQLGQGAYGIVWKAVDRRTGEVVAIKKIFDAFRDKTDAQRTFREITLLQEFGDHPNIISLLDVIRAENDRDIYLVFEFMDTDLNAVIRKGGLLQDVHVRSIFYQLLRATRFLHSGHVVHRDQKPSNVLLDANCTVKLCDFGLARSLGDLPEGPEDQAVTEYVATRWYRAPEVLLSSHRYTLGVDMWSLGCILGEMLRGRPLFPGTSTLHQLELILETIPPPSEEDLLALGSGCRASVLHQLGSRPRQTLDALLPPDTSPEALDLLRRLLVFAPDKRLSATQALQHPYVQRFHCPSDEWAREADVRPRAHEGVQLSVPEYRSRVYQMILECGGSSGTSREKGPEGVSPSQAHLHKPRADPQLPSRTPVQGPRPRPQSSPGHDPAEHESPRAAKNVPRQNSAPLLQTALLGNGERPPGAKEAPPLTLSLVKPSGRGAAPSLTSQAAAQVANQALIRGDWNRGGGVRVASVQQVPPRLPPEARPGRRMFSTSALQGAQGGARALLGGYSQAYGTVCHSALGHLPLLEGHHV

[15] = tested on: MDA-MB-231; assay: Inhibition of RNA polymerase 2 C-terminal domain phosphorylation at Ser5 in heptad repeat in human MDA-MB-231 cells at 37 to 333 nM incubated for 24 hrs by Western blotting analysis; assay type: cell-based; settings: dose 37-333 nM
[16] = biological target: T2, Dual specificity mitogen-activated protein kinase kinase 5 (Homo sapiens) (UniProt Q13163); assay: Inhibition of MAP2K5 (unknown origin) assessed as remaining activity at 1 uM by discoverX kinomescan assay relative to control
T2 sequence (whole entry): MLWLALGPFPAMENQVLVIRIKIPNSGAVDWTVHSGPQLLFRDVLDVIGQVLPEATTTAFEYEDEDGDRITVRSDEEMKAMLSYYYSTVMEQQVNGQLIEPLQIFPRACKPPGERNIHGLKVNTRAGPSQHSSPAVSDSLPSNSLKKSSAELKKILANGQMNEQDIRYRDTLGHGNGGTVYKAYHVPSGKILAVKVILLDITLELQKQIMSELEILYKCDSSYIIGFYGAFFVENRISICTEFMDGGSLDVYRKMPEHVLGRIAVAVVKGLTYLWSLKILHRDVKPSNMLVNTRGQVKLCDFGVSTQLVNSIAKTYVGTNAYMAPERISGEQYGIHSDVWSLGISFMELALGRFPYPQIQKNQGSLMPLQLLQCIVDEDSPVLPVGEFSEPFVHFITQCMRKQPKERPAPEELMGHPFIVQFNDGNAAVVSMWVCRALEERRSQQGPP

[17] = tested on: MDA-MB-231; assay: Antiproliferative activity against human MDA-MB-231 cells incubated for 120 hrs by CCK-8 assay; assay type: functional, cell-based; settings: MDA-MB-231, 120 h
[18] = biological target: T3, Dual specificity mitogen-activated protein kinase kinase 5 (Homo sapiens, UniProt Q13163); assay: Inhibition of MAP2K5 (unknown origin) by discoverX kinomescan assay
T3 sequence (Q13163 whole entry): T2 sequence (whole entry)

[19] = Metabolic stability in human liver microsomes assessed as half-life; assay type: ADME, Microsome
[20] = biological target: Cyclin-dependent kinase 7 (Homo sapiens) (UniProt P50613); assay: Inhibition of CDK7 in human MDA-MB-453 cells assessed as decrease in Thr160 phosphorylation of CDK2 at 37 to 333 nM incubated for 24 hrs by Western blot substrate; assay type: cell-based; settings: dose 37-333 nM
[21] = tested on: MDA-MB-453; assay: Downregulation of Rb protein phosphorylation at Ser608 in human MDA-MB-453 cells incubated for 24 hrs by Western blot analysis; assay type: functional, cell-based; settings: dose 37-333 nM
[22] = biological target: Cyclin-dependent kinase 16 (Homo sapiens) (UniProt Q00536); assay: Inhibition of CDK16 (unknown origin) at 1 uM by discoverX kinomescan assay
[23] = Cmax in CD1 mouse at 10 mg/kg, po measured upto 24 hrs by LC-MS/MS analysis; assay type: ADME, organism-based; settings: in vivo
[24] = tested on: MDA-MB-453; assay: Induction of cell cycle arrest in human MDA-MB-453 cells assessed as G0/G1 phase arrest at 12.3 to 1000 nM incubated for 24 hrs by PI staining based flow cytometry analysis; assay type: functional; settings: dose 12.3-1000 nM
[25] = tested on: MDA-MB-231; assay: Downregulation of Rb protein phosphorylation at Ser811 in human MDA-MB-231 cells incubated for 24 hrs by Western blot analysis; assay type: functional, cell-based; settings: dose 37-333 nM
[26] = tested on: MDA-MB-231; assay: Antitumor activity against human MDA-MB-231 cells xenografted in Balb/c mouse assessed as tumor regression at 5 to 10 mg/kg, po administered once daily and measured at day 15; assay type: functional, organism-based; settings: dose 5-10 mg/kg
[27] = Clearance in CD1 mouse at 1 mg/kg, iv measured upto 24 hrs by LC-MS/MS analysis; assay type: ADME, organism-based; settings: in vivo
[28] = Half life in CD1 mouse at 1 mg/kg, iv measured upto 24 hrs by LC-MS/MS analysis; assay type: ADME, organism-based; settings: in vivo

Cyclin-dependent kinase 7 (Homo sapiens), sequence (P50613 whole entry): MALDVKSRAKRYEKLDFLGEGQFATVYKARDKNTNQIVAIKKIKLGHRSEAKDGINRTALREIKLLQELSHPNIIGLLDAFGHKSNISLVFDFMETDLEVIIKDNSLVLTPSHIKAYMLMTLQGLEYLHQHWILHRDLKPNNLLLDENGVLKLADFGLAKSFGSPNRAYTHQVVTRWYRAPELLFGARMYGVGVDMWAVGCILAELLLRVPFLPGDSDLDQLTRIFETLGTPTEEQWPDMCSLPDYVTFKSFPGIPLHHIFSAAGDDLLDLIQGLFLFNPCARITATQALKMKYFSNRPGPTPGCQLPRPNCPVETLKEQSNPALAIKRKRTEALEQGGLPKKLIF
Cyclin-dependent kinase 13 (Homo sapiens), sequence (Q14004 whole entry, looked up): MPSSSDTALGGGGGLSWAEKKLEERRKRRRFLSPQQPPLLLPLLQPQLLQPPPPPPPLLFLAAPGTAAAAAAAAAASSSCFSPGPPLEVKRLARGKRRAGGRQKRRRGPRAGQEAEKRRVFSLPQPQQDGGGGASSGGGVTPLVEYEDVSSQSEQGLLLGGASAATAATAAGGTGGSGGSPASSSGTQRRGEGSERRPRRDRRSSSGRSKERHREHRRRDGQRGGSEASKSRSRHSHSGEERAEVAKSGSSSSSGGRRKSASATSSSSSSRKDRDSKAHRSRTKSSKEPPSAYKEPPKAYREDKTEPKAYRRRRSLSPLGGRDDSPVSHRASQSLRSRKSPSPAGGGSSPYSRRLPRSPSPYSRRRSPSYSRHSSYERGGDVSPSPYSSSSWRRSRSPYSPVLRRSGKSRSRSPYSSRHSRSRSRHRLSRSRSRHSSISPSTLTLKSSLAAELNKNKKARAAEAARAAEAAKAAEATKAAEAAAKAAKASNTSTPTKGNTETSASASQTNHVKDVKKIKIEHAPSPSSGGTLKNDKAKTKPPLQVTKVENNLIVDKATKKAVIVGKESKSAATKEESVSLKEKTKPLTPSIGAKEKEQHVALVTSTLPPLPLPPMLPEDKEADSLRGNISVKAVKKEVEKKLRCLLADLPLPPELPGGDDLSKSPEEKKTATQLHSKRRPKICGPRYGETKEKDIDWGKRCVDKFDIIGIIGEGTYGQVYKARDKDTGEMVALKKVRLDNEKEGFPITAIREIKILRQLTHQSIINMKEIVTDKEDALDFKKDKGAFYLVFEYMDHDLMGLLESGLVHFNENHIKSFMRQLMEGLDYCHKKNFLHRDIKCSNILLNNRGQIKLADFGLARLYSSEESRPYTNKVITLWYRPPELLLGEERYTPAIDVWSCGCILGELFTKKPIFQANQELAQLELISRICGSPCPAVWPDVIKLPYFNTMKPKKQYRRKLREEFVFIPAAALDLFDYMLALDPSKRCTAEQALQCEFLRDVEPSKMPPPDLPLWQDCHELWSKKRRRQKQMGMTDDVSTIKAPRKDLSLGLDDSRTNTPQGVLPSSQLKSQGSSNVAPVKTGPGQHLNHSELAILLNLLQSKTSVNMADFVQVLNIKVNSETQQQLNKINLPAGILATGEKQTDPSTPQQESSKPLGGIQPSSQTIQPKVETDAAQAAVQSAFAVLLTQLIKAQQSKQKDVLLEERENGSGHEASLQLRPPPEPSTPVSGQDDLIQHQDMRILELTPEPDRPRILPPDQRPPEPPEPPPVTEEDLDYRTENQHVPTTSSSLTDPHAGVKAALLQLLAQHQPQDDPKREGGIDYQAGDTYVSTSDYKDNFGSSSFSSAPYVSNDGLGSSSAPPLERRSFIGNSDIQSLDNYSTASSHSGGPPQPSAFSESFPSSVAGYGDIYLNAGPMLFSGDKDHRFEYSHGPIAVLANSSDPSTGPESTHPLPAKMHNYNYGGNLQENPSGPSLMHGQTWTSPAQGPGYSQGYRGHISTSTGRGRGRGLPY
Cyclin-dependent kinase 16 (Homo sapiens), sequence (Q00536 whole entry): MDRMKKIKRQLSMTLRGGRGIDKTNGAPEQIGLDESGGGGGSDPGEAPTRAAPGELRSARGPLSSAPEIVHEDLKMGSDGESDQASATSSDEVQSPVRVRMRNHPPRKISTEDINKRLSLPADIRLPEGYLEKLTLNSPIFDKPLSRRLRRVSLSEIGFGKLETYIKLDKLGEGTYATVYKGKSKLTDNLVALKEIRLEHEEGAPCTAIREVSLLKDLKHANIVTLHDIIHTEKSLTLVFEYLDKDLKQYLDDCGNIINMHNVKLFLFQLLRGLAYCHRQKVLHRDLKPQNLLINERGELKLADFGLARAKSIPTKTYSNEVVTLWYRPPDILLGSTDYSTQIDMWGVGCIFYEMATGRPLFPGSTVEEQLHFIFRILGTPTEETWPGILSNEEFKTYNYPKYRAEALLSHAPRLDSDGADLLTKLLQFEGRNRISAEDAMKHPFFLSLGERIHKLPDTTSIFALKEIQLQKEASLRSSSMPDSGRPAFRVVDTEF
Cyclin-dependent kinase 18 (Homo sapiens), sequence (Q07002 whole entry): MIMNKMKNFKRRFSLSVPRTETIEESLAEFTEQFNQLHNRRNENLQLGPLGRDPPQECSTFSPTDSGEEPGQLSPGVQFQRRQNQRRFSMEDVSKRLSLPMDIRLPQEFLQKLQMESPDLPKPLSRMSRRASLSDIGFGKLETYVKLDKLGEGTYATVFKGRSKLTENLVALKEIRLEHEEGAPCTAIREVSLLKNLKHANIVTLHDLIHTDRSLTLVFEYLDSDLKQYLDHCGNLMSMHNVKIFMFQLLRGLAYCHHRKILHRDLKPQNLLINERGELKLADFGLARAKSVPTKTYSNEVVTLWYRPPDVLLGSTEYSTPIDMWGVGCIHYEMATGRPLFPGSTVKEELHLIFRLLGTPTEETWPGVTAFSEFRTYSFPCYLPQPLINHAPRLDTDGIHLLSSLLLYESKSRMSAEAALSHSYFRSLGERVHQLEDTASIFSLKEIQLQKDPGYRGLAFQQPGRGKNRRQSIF

bioavailability [3]: 22.3%
EC50 [5]: 150 nM
inhibition [6]: inactive
inhibition [7]: inactive
Vd [9]: 4.6 L/kg
half-life [11]: 0.85 h
AUC(0-t) at 24 h [12]: 230 ng·h/mL
Activity [16]: < 1%
EC50 [17]: 320 nM
IC50 [18]: 170 nM
half-life [19]: 1.2 h
inhibition [20]: Active
inhibition [22]: inactive
Cmax [23]: 117 ng/mL
clearance [27]: 68.3 mL/min/kg
half-life [28]: 1.9 h
Compound: CP(C)(=O)c1c(C#N)ccc2c(-c3nc(N[C@@H]4CNC[C@@H](F)C4)nc4ccsc34)c[nH]c12
Activity [1]: Dose-Dependent Effect
Activity [2]: Dose-Dependent Effect
Activity [4]: Dose-Dependent Effect
Activity [8]: Dose-Dependent Effect
Activity [10]: Non-Toxic
Activity [13]: Dose-Dependent Effect
inhibition [14]: inactive
inhibition [15]: Active
Activity [21]: Dose-Dependent Effect
Activity [24]: Active
Activity [25]: Dose-Dependent Effect
Activity [26]: Active
